The source made the active and inactive calls.
Key:
[1] = Selectivity index, ratio of CC25 for African green monkey Vero cells to IC25 for Herpes simplex virus 1 KOS; format: toxicity, cell-based; conditions: read-out: Selectivity Index
[2] = Therapeutic index, ratio of CC50 for African green monkey Vero cells to IC50 for Herpes simplex virus 1 KOS; format: cell-based; conditions: read-out: Ratio CC50/IC50
[3] = system: Vero; test: (§1) Cytotoxicity against Chlorocebus aethiops (African green monkey) Vero cells after 72 hr by XTT assay; format: cell-based; conditions: chlorocebus sabaeus, vero, 72 h
[4] = system: Human alphaherpesvirus 1; test: Antiviral activity against Human herpesvirus 1 strain KOS infected Vero cells after 72 hr by plaque reduction assay; format: functional, organism-based
[5] = as §1; format: cell-based; conditions: chlorocebus sabaeus, Vero cells
[6] = Human alphaherpesvirus 1, KOS, Vero, 72 h
[7] = Human alphaherpesvirus 1, KOS, Vero, 72 h, read-out: IC50

Structure (SMILES) | IC50 [4, 7] [µM] | IC50 ([4]; vero) | selectivity ratio [1] | selectivity ratio [2] | CC25 [3] | CC50 [3] | IC25 [4, 6] [µM] | CC50 at 72 h [5] [µM] | IC25 [4]
COC(=O)C1=C(C)NC(=S)NC1c1cccs1 (stereo unspecified) | > 100 | – | > 1.1 | > 1 | Non-toxic | Non-toxic | 92.5 | – | –
CC1=C(C(=O)Nc2cccnc2)C(c2cccs2)NC(=O)N1 (stereo unspecified) | – | Not Active | < 1 | < 1 | > 100 µM | – | – | > 100 | inactive
CC1=C(C(=O)Nc2ccccc2Cl)C(c2cnc(CS)n2NCc2ccccc2)NC(=O)N1 (stereo unspecified) | – | Not Active | < 1 | < 1 | > 100 µM | – | – | > 100 | inactive
CC1=C(C(=O)Nc2ccccc2Cl)C(c2ccccc2Br)NC(=O)N1 (stereo unspecified) | 59.8 | – | 4.2 | > 1.6 | 58.8 µM | – | 13.9 | > 100 | –
CC1=C(C(=O)Nc2ccccc2Cl)C(C(C)c2ccccc2)NC(=O)N1 (stereo unspecified) | > 100 | – | 0.07 | < 1 | 1.7 µM | – | 21.3 | 91.5 | –
CC1=C(C(=O)Nc2ccccc2Cl)C(c2ccccc2Cl)NC(=O)N1 (stereo unspecified) | 67.4 | – | > 1000 | > 1.4 | Non-toxic | Non-toxic | 0.1 | – | –
CC1=C(C(=O)OC(C)C)C(c2cccs2)NC(S)=N1 (stereo unspecified) | 28 | – | 0.6 | 1.9 | 5.7 µM | – | 8.5 | 53.9 | –
CC1=C(C(=O)Nc2ccc(Cl)cc2)C(c2cccs2)NC(=O)N1 (stereo unspecified) | 59.7 | – | 7.1 | > 1.6 | 83.2 µM | – | 11.7 | > 100 | –
CC1=C(C(=O)Nc2cccc(Cl)c2)C(c2cccs2)NC(=O)N1 (stereo unspecified) | – | Not Active | < 1 | < 1 | 87.9 µM | – | – | > 100 | inactive
CC1=C(C(=O)Nc2ccc(Cl)cc2)C(c2cnc(CS)n2Nc2ccccc2)NC(=O)N1 (stereo unspecified) | > 100 | – | 1.4 | > 1 | 53.9 µM | – | 37 | > 100 | –
CC1=C(C(=O)Nc2ccccc2Cl)C(c2cccs2)NC(=O)N1 (stereo unspecified) | 81.5 | – | 3.9 | > 1.2 | 98.9 µM | – | 25.2 | > 100 | –
CC1=C(C(=O)Nc2cccc(Cl)c2)C(c2cnc(CS)n2Nc2ccccc2)NC(=O)N1 (stereo unspecified) | > 100 | – | 5.1 | < 0.9 | 71.1 µM | – | 13.7 | 98.6 | –
CC1=C(C(=O)NC2CCCCC2)C(c2ccccc2)NC(=O)N1 (stereo unspecified) | > 100 | – | 38 | > 1 | 7.6 µM | – | 0.2 | > 100 | –
CC1=C(C(=O)Nc2ccccc2Cl)C(c2ccccc2Cl)NC(=S)N1 (stereo unspecified) | > 100 | – | 35 | > 1 | 24.5 µM | – | 0.7 | > 100 | –
CC1=C(C(=O)Nc2cccc(Cl)c2)C(c2cnc(CS)n2NCc2ccccc2)NC(=O)N1 (stereo unspecified) | 67 | – | 1.8 | > 1.4 | 100 µM | – | 53.8 | > 100 | –
CC1=C(C(=O)Nc2ccccc2Cl)C(c2cnc(CS)n2Nc2ccccc2)NC(=O)N1 (stereo unspecified) | – | Not Active | < 1 | < 1 | 97.7 µM | – | – | > 100 | inactive
CC1=C(C(=O)Nc2ccccc2Cl)C(c2cccc([N+](=O)[O-])c2)NC(=O)N1 (stereo unspecified) | 46.1 | – | > 1000 | > 2.1 | Non-toxic | Non-toxic | 0.1 | – | –
CC1=C(C(=O)OCC(C)C)C(c2cccs2)NC(S)=N1 (stereo unspecified) | 1.8 | – | 30.6 | 48.6 | 18.4 µM | – | 0.6 | 87.5 | –
CCOC(=O)C1=C(C)NC(=O)NC1c1ccc(Br)cc1 (stereo unspecified) | – | – | – | – | 67.5 µM | – | – | – | –
CC1=C(C(=O)Oc2ccccc2)C(c2ccccc2)NC(=S)N1 (stereo unspecified) | > 100 | – | > 1.1 | > 1 | Non-toxic | Non-toxic | 93.2 | – | –

Now from value to molecule, other results behind:

IC50 [4, 7] [µM] | IC50 ([4]; vero) | Structure (SMILES) | selectivity ratio [1] | selectivity ratio [2] | CC25 [3] | CC50 [3] | IC25 [4, 6] [µM] | CC50 at 72 h [5] [µM] | IC25 [4]
– | Not Active | CCCC1NC(=O)NC(C)=C1C(=O)OCC (stereo unspecified) | 1 | 1 | Non-toxic | Non-toxic | – | – | inactive
> 100 | – | CC1=C(C(=O)Nc2ccc(F)cc2)C(c2ccccc2)NC(=O)N1 (stereo unspecified) | 48.6 | > 1 | 43.8 µM | – | 0.9 | > 100 | –
89.7 | – | CC1=C(C(=O)Oc2ccccc2)C(c2ccccc2)NC(=O)N1 (stereo unspecified) | 9.4 | > 1.1 | 98 µM | – | 10.4 | > 100 | –
> 100 | – | COc1cccc(C2NC(=O)NC(C)=C2C(=O)Nc2ccccc2Cl)c1 (stereo unspecified) | 5 | > 1 | 45.6 µM | – | 9.1 | > 100 | –
63.6 | – | COc1ccc(C2NC(=O)NC(C)=C2C(=O)Nc2ccccc2Cl)cc1 (stereo unspecified) | 25.1 | > 1.5 | 17.6 µM | – | 0.7 | > 100 | –
81.9 | – | CC1=C(C(=O)Nc2ccccc2Cl)C(c2ccc([N+](=O)[O-])cc2)NC(=O)N1 (stereo unspecified) | > 167 | > 1.2 | Non-toxic | Non-toxic | 0.6 | – | –
95.4 | – | CC1=C(C(=O)Nc2ccccc2Cl)C(c2cccc(Br)c2)NC(=O)N1 (stereo unspecified) | 34.1 | > 1 | 54.7 µM | – | 1.6 | > 100 | –
– | Not Active | CCOC(=O)C1=C(C)NC(=O)NC1c1cnc(CS)n1NCc1ccccc1 (stereo unspecified) | 1 | 1 | Non-toxic | Non-toxic | – | – | inactive
– | Not Active | CC1=C(C(=O)OC(C)(C)C)C(c2cccs2)NC(=O)N1 (stereo unspecified) | < 1 | < 1 | 76.7 µM | – | – | > 100 | inactive
7.9 | – | CCCOC(=O)C1=C(C)NC(=S)NC1c1cccs1 (stereo unspecified) | 0.3 | 2.9 | 0.5 µM | – | 1.5 | 23.6 | –
32.7 | – | CC1=C(C(=O)Nc2ccccc2Cl)C(c2ccc(Br)cc2)NC(=O)N1 (stereo unspecified) | 936 | > 3 | 84.3 µM | – | 0.09 | > 100 | –
13 | – | CC1=C(C(=O)Nc2ccccc2Cl)C(c2ccc(Cl)cc2)NC(=O)N1 (stereo unspecified) | > 625 | > 6.6 | Non-toxic | Non-toxic | 0.16 | – | –
10.5 | – | CC1=C(C(=O)Nc2ccccc2Cl)C(c2ccc(C)cc2)NC(=O)N1 (stereo unspecified) | > 1250 | > 10 | > 100 µM | – | 0.08 | > 100 | –
– | Not Active | CCOC(=O)C1=C(C)NC(=O)NC1c1ccc(F)cc1 (stereo unspecified) | 1 | 1 | Non-toxic | Non-toxic | – | – | inactive
– | Not Active | COC(=O)C1=C(C)NC(=O)NC1c1ccc(F)cc1 (stereo unspecified) | 1 | 1 | Non-toxic | Non-toxic | – | – | inactive
82.7 | – | COC(=O)C1=C(C)NC(=S)NC1c1ccc(Br)cc1 (stereo unspecified) | 0.8 | 1.22 | 69.1 µM | – | 67.7 | 97.2 | –
– | Not Active | COC(=O)C1=C(C)N(C)C(=O)NC1c1ccc(F)cc1 (stereo unspecified) | 1 | 1 | Non-toxic | Non-toxic | – | – | inactive
43.3 | – | CC1=C(C(=O)Nc2ccc(Br)cc2)C(c2ccccc2)NC(=O)N1 (stereo unspecified) | 356 | > 2.3 | 71.3 µM | – | 0.2 | > 100 | –
– | Not Active | CCOC(=O)C1=C(C)NC(=O)NC1c1ccccc1 (stereo unspecified) | > 1 | 1 | Non-toxic | Non-toxic | 133 | – | –
– | Not Active | CCOC(=O)C1=C(C)N(C)C(=O)NC1c1ccc(F)cc1 (stereo unspecified) | > 1 | 1 | Non-toxic | Non-toxic | 99 | – | –
> 100 | – | CCOC(=O)C1=C(C)N=C(S)NC1c1cccs1 (stereo unspecified) | 6.2 | – | 87.3 µM | – | 14 | 100 | –
122 | – | CCOC(=O)C1=C(C)NC(=S)NC1c1ccc(Br)cc1 (stereo unspecified) | 0.1 | 0.31 | 9.3 µM | – | 87.3 | 38.9 | –
